How the values were obtained:
[1] = model drug release into agarose gel; type: physicochemical; conditions: PLGA II microneedle patch inserted into agarose gel, 5 days
From the text: The Rhodamine B-loaded PLGA II microneedle patch is then inserted into an agarose gel with a parafilm layer. The gel becomes red after the insertion of PLGA II microneedle patch loaded with Rhodamine B after 5 days while the control sample is still white. The insertion holes created by PLGA II with Rhodamine B show a higher florescence intensity (right panel in FIG. 4A) compared with that of the agar inserted by pure PLGA II microneedle patch (left panel in FIG. 4A).

[2] = long-term drug release from PLGA microneedle patches in PBS; type: physicochemical; conditions: loaded in PLGA II microneedle patch, PBS solution at 37° C., after 15 days
Protocol: In addition, the long-term drug release performance of the PLGA II microneedle patch is conducted by loading aspirin and ibuprofen, which are two commonly used drugs in anti-inflammation. Aspirin- and ibuprofen-loaded PLGA microneedle patches are immersed in PBS solution at 37° C. for one month. […] The aspirin releases more than 80% while ibuprofen releases around 70% after 15 days, indicating a promising drug delivery performance of the PLGA microneedles.
Commercial aspirin (99%, Rhawn) or ibuprofen (98%, Macklin) were dissolved in chloroform and mixed with PLGA solution, where the mass of aspirin and ibuprofen are the weight ratio of 10% and 5% of PLGA polymers, respectively. Then the composite solution was added in a PDMS microneedle mold. The solutions in the mold were put in a vacuum over at 40° C. until no solvent remained. Finally, the solidified PLGA microneedles with mold were put at 100° C. heating stage for 2 h to remove residual solvent. After that, the obtained PLGA microneedles were heat pressed on the wireless electric stimulative electrodes, followed by depositing W (˜1000 nm) on the PLGA microneedle to yield the conductive microneedle electrodes.

| SMILES | release of model drug from microneedle tips (fluorescence) [1] | drug release ratio [2] |
| --- | --- | --- |
| CCN(CC)c1ccc2c(-c3ccccc3C(=O)O)c3ccc(=[N+](CC)CC)cc-3oc2c1.[Cl-] [Rhodamine B] | successfully released |  |
| CC(=O)Oc1ccccc1C(=O)O [aspirin] |  | more than 80% |
| CC(C)Cc1ccc(C(C)C(=O)O)cc1 (stereo not drawn) [ibuprofen] |  | around 70% |

— US12539406B2, “Electrostimulation based drug delivery system and method for using thereof” (City University of Hong Kong, priority 2022, dated 2026)
